Series [1] deals with Smn protein in SMA patient fibroblast cells (GM03813). In words: Smn protein assay in cultured cells (SMN HTRF). It is filed as cell-based, human. The settings on record: SMA patient fibroblast cells, 48 hours; for EC1.5x for Smn protein expression: 7-point concentration curve, SMN HTRF, concentration producing 1.5 times Smn protein vs DMSO vehicle control; for maximum fold (Fold) increase of Smn protein: 7-point concentration data, fold relative to vehicle control. An outline of the steps: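 SMA patient fibroblasts (5,000/well, DMEM-10% FBS) treated 48 h at 37° C with 7-point, 3.16-fold compound series in triplicate; lysates read by SMN HTRF (665/620 nm ratio). Fold Smn increase over DMSO vehicle derived; EC1.5× is concentration giving 1.5-fold Smn, with maximum fold also reported.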
A general note: In TR-FRET formats the signal depends on donor and acceptor labels being close together.

The test system of series [2] is SMN2 minigene mRNA (SMN2-A minigene) in HEK293H cells. In words: SMN2 minigene mRNA splicing RT-qPCR assay in cultured cells. It is filed as cell-based, human. The settings on record: Homo sapiens, HEK293-H; concentration increasing full length SMN2 mRNA 1.5-fold relative to vehicle-treated cells; HEK293H cells with SMN2-A minigene, 24 hours, 7-point concentration data; read-out: EC1.5x for production of full length SMN2 mRNA. Summed up:
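HEK293H cells stably carrying SMN2-A minigene treated with compounds (7-point, 3.16-fold dilutions, duplicates) for 24 h at 37 °C. Full-length exon 7-containing minigene mRNA measured by multiplex RT-qPCR with GAPDH, normalized and expressed relative to vehicle (modified ΔΔCt); EC1.5× is concentration giving 1.5-fold increase.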
Background: Real-time PCR tracks product formation cycle by cycle.

The term melting point denotes the temperature, or range, at which the solid turns liquid.

`COc1ccc(-c2cc(=O)n3cc(C4=CCNCC4)ccc3n2)cc1OC` [Cpd 143, 2-(3,4-dimethoxyphenyl)-7-(1,2,3,6-tetrahydropyridin-4-yl)-4H-pyrido[1,2-a]pyrimidin-4-one]: the melting point lay in the range of 196 to 198 °C. Also, in series [1], the “EC1.5x for Smn protein expression” value is “**** (an EC1.5x≤0.3 μM is indicated by four stars (****))” and the “maximum fold (Fold) increase of Smn protein” value (“maximum fold (Fold) increase” for short) was “***** (a fold increase >1.65 is indicated by five stars (*****))”. Also, the EC (1.5-fold increase) in series [2] is under 0.1 µM.
In the case of `COc1ccc(-c2cc(=O)n3cc(C4CCNCC4)ccc3n2)cc1OC` [Cpd 144, 2-(3,4-dimethoxyphenyl)-7-(piperidin-4-yl)-4H-pyrido[1,2-a]pyrimidin-4-one], the melting point was 214 to 217 °C. In series [1], the “EC1.5x for Smn protein expression” value is recorded as “**** (an EC1.5x≤0.3 μM is indicated by four stars (****))”; the “maximum fold (Fold) increase” value is “**** (a fold increase between >1.5 and ≤1.65 is indicated by four stars (****))”. Also, in series [2], the EC (1.5-fold increase) was under 0.1 µM.
In turn, `CCOc1ccc(-c2cc(=O)n3cc(N4CCNCC4)ccc3n2)cc1F` [Cpd 153, 2-(4-ethoxy-3-fluorophenyl)-7-(piperazin-1-yl)-4H-pyrido[1,2-a]pyrimidin-4-one] registered a melting point of 180 to 186 °C. The “maximum fold (Fold) increase” value in series [1] is “** (a fold increase between >1.2 and ≤1.35 is indicated by two stars (**))”. Besides, the EC (1.5-fold increase) in series [2] was 0.3 to 1 µM.
In turn, `Cc1csc(-c2cc(=O)n3cc(N4CCNCC4)ccc3n2)n1` [Cpd 163, 2-(4-methyl-1,3-thiazol-2-yl)-7-(piperazin-1-yl)-4H-pyrido[1,2-a]pyrimidin-4-one] yielded a melting point of 142 to 147 °C. For the same compound, the “maximum fold (Fold) increase” value in series [1] was “*** (a fold increase between >1.35 and ≤1.5 is indicated by three stars (***))”. Further, in series [2], the EC (1.5-fold increase) lay within 1 to 3 µM.
Consider `COc1ccc(-c2cc(=O)n3cc(C4CCN(C)CC4)ccc3n2)cc1OC` [Cpd 164, 2-(3,4-dimethoxyphenyl)-7-(1-methylpiperidin-4-yl)-4H-pyrido[1,2-a]pyrimidin-4-one], for which the melting point lay in the range of 181 to 183 °C. Besides, in series [1], the “EC1.5x for Smn protein expression” value was “** (an EC1.5× between >1 μM and ≤3 μM is indicated by two stars (**))”; the “maximum fold (Fold) increase” value was “**** (a fold increase between >1.5 and ≤1.65 is indicated by four stars (****))”. Further, in series [2], the EC (1.5-fold increase) was in the range of 0.3 to 1 µM.
In the case of `Cc1nc2ccc(-c3cc(=O)n4cc(N5CCN(C)CC5)ccc4n3)cc2o1` [Cpd 171, 2-(2-methyl-1,3-benzoxazol-6-yl)-7-(4-methylpiperazin-1-yl)-4H-pyrido[1,2-a]pyrimidin-4-one], the melting point was in the range of 178 to 183 °C. For the same compound, in series [1], the “EC1.5x for Smn protein expression” value is given as “**** (an EC1.5x≤0.3 μM is indicated by four stars (****))” and the “maximum fold (Fold) increase” value was “***** (a fold increase >1.65 is indicated by five stars (*****))”. The EC (1.5-fold increase) in series [2] is under 0.1 µM.
Turning to `Cc1cn(-c2cc(=O)n3cc(N4CCNCC4)ccc3n2)cn1` [Cpd 179, 2-(4-methyl-1H-imidazol-1-yl)-7-(piperazin-1-yl)-4H-pyrido[1,2-a]pyrimidin-4-one], the melting point was 204 to 206 °C. Moreover, in series [1], the “EC1.5x for Smn protein expression” value is “*** (an EC1.5× between >0.3 μM and ≤1 μM is indicated by three stars (***))”; the “maximum fold (Fold) increase” value is “***** (a fold increase >1.65 is indicated by five stars (*****))”. Besides, the EC (1.5-fold increase) in series [2] was in the range of 0.3 to 1 µM.
On to `COc1ncc(-c2cc(=O)n3cc(N4CCNCC4)ccc3n2)cc1F` [Cpd 182, 2-(5-fluoro-6-methoxypyridin-3-yl)-7-(piperazin-1-yl)-4H-pyrido[1,2-a]pyrimidin-4-one], for which the melting point is 166 to 170 °C. Also, in series [1], the “EC1.5x for Smn protein expression” value is “*** (an EC1.5× between >0.3 μM and ≤1 μM is indicated by three stars (***))”; the “maximum fold (Fold) increase” value was “**** (a fold increase between >1.5 and ≤1.65 is indicated by four stars (****))”. The EC (1.5-fold increase) in series [2] is 0.3 to 1 µM.

The values are drawn from patent publication US11753407B2, “Compounds for treating spinal muscular atrophy” (PTC Therapeutics, Inc., priority 2012, dated 2023).
